In ChEMBL document CHEMBL5505977, “Discovery of novel pyrrolo[2,3-d]pyrimidines as potent menin-mixed lineage leukemia interaction inhibitors” (Eur J Med Chem, 2024):
The source made the active and inactive calls. No cut-off for these calls is given here.

Key:
Menin = biological target: T1, Menin (Homo sapiens, UniProt O00255); assay: Binding affinity to menin (unknown origin) incubated for 1 hr by fluorescence polarization assay
T1 sequence (O00255 whole entry): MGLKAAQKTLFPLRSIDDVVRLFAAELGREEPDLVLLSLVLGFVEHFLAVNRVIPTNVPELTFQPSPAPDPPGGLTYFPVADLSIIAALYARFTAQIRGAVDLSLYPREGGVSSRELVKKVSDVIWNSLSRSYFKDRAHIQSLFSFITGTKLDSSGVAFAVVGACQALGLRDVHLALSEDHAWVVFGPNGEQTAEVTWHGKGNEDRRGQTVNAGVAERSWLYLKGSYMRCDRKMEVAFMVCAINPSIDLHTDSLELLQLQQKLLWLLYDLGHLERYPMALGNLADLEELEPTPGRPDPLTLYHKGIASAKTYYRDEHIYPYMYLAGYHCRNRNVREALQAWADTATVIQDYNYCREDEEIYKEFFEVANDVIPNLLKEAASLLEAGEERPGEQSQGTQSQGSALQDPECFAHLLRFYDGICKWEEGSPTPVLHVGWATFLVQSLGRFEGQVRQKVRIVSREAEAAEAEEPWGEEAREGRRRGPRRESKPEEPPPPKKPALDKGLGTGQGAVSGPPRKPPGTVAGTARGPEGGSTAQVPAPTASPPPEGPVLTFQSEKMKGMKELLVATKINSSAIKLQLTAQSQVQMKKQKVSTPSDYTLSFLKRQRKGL

HL-60 = assay: Antiproliferative activity against human HL-60 cells incubated for 72 hrs by MTT assay; format: functional, cell-based; conditions: HL-60, 72 h
MV4-11 [1] = assay: cells; conditions: Homo sapiens, MV4-11, 72 h
Description: Antiproliferative activity against human MV4-11 cells incubated for 72 hrs by MTT assay

SU-DHL-6 = assay: Antiproliferative activity against human SU-DHL-6 cells incubated for 72 hrs by MTT assay; format: functional, cell-based; conditions: SU-DHL-6, 72 h
Pfeiffer = assay: Antiproliferative activity against human Pfeiffer cells incubated for 72 hrs by MTT assay; format: functional, cell-based
Raji = assay: Antiproliferative activity against human Raji cells incubated for 72 hrs by MTT assay; format: functional, cell-based
Ramos = assay: Antiproliferative activity against human Ramos cells incubated for 72 hrs by MTT assay; format: functional, cell-based
HCT-116 = assay: Antiproliferative activity against human HCT-116 cells incubated for 72 hrs by MTT assay; format: functional, cell-based; conditions: HCT-116, 72 h
MCF7 = assay: Antiproliferative activity against human MCF7 cells incubated for 72 hrs by MTT assay; format: functional, cell-based; conditions: MCF7, 72 h
[2] = Antiproliferative activity against human NCM460 cells incubated for 72 hrs by MTT assay; format: toxicity, cell-based
MV4-11 [3] = assay: Antiproliferative activity against human MV4-11 cells incubated for 7 days by PrestoBlue Cell Viability assay; format: functional, cell-based; conditions: MV4-11, 168 h
[4] = biological target: Voltage-gated inwardly rectifying potassium channel KCNH2 (Homo sapiens, UniProt Q12809); assay: Inhibition of human ERG expressed in CHO cells by Q-patch clamp assay; format: toxicity, cell-based
MV4-11 [5] = assay: Induction of apoptosis in human MV4-11 cells assessed as viable cells at 1 uM incubated for 24 hrs by FITC Annexin-V/PI staining based flow cytometry analysis (reference value: 94.27%); format: functional; conditions: read-out: Activity
MV4-11 [6] = assay: Induction of apoptosis in human MV4-11 cells assessed as early apoptotic cells at 1 uM incubated for 24 hrs by FITC Annexin-V/PI staining based flow cytometry analysis (reference value: 2.68%); format: functional
MV4-11 [7] = assay: Induction of apoptosis in human MV4-11 cells assessed as late apoptotic cells at 1 uM incubated for 24 hrs by FITC Annexin-V/PI staining based flow cytometry analysis (reference value: 3%); format: functional
MV4-11 [8] = assay: Induction of apoptosis in human MV4-11 cells assessed as necrotic cells at 1 uM incubated for 24 hrs by FITC Annexin-V/PI staining based flow cytometry analysis (reference value: 0.04%); format: functional
MV4-11 [9] = assay: Induction of apoptosis in human MV4-11 cells assessed as viable cells at 10 uM incubated for 24 hrs by FITC Annexin-V/PI staining based flow cytometry analysis (reference value: 94.27%); format: functional; conditions: read-out: Activity
MV4-11 [10] = assay: Induction of apoptosis in human MV4-11 cells assessed as early apoptotic cells at 10 uM incubated for 24 hrs by FITC Annexin-V/PI staining based flow cytometry analysis (reference value: 2.68%); format: functional
MV4-11 [11] = assay: Induction of apoptosis in human MV4-11 cells assessed as late apoptotic cells at 10 uM incubated for 24 hrs by FITC Annexin-V/PI staining based flow cytometry analysis (reference value: 3%); format: functional
MV4-11 [12] = assay: Induction of apoptosis in human MV4-11 cells assessed as necrotic cells at 10 uM incubated for 24 hrs by FITC Annexin-V/PI staining based flow cytometry analysis (reference value: 0.04%); format: functional
MV4-11 [13] = assay: Induction of cell cycle arrest in human MV4-11 cells assessed as accumulation of cells at G0/G1 phase at 10 uM incubated for 24 hrs by PI/RNase staining based flow cytometry analysis; format: functional
MV4-11 [14] = assay: Effect on cell differentiation in human MV4-11 cells assessed as decrease in HOXA9 expression level incubated for 48 hrs by qPCR analysis; format: functional, cell-based
MV4-11 [15] = assay: Effect on cell differentiation in human MV4-11 cells assessed as decrease in HOXA9 expression level at 5 uM by qPCR analysis; format: functional, cell-based; conditions: time 24-48 hrs, TDE = time-dependent effect
MV4-11 [16] = assay: Effect on cell differentiation in human MV4-11 cells assessed as decrease in MEIS1 expression level incubated for 48 hrs by qPCR analysis; format: functional, cell-based
MV4-11 [17] = assay: Effect on cell differentiation in human MV4-11 cells assessed as decrease in MEIS1 expression level at 5 uM by qPCR analysis; format: functional, cell-based; conditions: time 24-48 hrs, TDE = time-dependent effect
MV4-11 [18] = assay: Effect on cell differentiation in human MV4-11 cells assessed as assessed as increase in CD11b protein expression at M2-1 at 1 uM incubated for 7 days by flow cytometry analysis (reference value: 86.12%); format: functional; conditions: time 7 day
MV4-11 [19] = assay: Effect on cell differentiation in human MV4-11 cells assessed as assessed as increase in CD11b protein expression at M2-2 at 1 uM incubated for 7 days by flow cytometry analysis (reference value: 13.86%); format: functional; conditions: time 7 day
MV4-11 [20] = assay: Effect on cell differentiation in human MV4-11 cells assessed as assessed as increase in CD11b protein expression at M2-1 at 10 uM incubated for 7 days by flow cytometry analysis (reference value: 86.12%); format: functional; conditions: time 7 day
MV4-11 [21] = assay: Effect on cell differentiation in human MV4-11 cells assessed as assessed as increase in CD11b protein expression at M2-2 at 10 uM incubated for 7 days by flow cytometry analysis (reference value: 13.86%); format: functional; conditions: time 7 day
[22] = biological target: Menin/Histone-lysine N-methyltransferase MLL (Homo sapiens, UniProt O00255); assay: Inhibition of human menin-MLL (unknown origin) protein-protein interaction by fluorescence polarization assay
Menin/Histone-lysine N-methyltransferase MLL, sequence (Q03164 1-2718 partner limits assumed, one chain of several): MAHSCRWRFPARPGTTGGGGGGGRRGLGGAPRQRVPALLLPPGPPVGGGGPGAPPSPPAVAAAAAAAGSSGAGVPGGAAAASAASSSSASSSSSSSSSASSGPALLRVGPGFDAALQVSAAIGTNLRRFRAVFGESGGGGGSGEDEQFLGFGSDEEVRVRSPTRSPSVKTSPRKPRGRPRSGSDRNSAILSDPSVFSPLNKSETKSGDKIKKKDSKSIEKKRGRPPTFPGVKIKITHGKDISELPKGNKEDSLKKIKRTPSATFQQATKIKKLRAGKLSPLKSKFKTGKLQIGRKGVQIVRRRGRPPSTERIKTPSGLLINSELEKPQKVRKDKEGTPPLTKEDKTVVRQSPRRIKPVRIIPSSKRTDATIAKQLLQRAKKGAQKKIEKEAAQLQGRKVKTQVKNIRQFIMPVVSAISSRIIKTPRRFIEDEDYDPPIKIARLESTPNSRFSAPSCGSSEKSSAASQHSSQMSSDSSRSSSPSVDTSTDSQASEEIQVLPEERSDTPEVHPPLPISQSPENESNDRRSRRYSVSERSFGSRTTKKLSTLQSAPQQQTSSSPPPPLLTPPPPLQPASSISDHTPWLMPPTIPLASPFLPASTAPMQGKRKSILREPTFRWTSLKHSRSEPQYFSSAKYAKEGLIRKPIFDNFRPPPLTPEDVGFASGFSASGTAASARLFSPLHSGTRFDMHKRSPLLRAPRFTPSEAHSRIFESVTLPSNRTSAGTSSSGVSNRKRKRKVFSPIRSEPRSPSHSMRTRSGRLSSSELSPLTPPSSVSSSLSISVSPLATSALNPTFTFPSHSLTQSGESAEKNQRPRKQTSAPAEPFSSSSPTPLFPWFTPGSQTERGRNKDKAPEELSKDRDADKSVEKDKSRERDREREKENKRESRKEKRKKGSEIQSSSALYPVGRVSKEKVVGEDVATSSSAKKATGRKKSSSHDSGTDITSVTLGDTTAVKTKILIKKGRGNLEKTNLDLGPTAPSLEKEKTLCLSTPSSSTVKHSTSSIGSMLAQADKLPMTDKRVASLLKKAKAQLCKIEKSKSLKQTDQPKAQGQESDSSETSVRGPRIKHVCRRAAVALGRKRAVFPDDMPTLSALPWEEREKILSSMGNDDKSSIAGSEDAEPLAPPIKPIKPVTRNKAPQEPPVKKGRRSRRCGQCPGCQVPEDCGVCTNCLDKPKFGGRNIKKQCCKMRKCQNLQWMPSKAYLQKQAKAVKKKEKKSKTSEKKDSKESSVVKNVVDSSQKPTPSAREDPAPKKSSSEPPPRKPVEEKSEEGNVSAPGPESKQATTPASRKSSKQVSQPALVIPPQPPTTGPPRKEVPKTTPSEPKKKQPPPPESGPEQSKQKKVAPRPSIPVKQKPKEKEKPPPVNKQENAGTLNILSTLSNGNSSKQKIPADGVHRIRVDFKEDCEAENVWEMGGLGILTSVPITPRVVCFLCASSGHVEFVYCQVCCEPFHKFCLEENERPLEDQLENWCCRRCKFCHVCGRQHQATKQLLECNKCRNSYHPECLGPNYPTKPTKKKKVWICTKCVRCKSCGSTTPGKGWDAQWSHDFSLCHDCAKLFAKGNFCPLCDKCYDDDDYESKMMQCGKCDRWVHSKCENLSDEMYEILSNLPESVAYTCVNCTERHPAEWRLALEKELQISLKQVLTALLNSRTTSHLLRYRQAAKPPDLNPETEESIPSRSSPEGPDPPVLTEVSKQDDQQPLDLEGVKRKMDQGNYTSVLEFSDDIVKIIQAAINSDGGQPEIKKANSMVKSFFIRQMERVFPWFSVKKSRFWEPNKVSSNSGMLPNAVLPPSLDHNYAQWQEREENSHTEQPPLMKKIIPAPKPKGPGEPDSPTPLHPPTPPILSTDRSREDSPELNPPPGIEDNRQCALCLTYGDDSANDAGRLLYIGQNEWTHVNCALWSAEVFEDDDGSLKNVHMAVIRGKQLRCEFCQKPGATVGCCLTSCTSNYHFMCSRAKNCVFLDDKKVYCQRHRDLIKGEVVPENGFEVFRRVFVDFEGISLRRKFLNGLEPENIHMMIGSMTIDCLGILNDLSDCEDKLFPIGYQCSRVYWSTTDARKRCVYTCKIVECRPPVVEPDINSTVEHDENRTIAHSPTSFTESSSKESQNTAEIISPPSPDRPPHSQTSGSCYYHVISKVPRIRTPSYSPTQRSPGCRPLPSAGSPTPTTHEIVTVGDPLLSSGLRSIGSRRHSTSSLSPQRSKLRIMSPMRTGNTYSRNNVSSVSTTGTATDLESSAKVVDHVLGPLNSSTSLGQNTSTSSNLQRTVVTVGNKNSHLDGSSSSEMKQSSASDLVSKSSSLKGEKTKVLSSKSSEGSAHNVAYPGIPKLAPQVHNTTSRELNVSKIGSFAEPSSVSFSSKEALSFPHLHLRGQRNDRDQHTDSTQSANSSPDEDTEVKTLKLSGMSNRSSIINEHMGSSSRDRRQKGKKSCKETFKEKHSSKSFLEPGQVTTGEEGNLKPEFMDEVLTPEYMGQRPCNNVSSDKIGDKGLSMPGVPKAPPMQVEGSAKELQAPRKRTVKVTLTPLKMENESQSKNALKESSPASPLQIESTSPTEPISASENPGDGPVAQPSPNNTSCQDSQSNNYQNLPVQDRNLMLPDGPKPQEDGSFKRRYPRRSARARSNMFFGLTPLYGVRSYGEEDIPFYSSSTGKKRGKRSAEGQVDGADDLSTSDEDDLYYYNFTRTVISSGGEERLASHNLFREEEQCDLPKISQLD
Menin/Histone-lysine N-methyltransferase MLL, sequence (Q03164 2719-3969 partner limits assumed, one chain of several): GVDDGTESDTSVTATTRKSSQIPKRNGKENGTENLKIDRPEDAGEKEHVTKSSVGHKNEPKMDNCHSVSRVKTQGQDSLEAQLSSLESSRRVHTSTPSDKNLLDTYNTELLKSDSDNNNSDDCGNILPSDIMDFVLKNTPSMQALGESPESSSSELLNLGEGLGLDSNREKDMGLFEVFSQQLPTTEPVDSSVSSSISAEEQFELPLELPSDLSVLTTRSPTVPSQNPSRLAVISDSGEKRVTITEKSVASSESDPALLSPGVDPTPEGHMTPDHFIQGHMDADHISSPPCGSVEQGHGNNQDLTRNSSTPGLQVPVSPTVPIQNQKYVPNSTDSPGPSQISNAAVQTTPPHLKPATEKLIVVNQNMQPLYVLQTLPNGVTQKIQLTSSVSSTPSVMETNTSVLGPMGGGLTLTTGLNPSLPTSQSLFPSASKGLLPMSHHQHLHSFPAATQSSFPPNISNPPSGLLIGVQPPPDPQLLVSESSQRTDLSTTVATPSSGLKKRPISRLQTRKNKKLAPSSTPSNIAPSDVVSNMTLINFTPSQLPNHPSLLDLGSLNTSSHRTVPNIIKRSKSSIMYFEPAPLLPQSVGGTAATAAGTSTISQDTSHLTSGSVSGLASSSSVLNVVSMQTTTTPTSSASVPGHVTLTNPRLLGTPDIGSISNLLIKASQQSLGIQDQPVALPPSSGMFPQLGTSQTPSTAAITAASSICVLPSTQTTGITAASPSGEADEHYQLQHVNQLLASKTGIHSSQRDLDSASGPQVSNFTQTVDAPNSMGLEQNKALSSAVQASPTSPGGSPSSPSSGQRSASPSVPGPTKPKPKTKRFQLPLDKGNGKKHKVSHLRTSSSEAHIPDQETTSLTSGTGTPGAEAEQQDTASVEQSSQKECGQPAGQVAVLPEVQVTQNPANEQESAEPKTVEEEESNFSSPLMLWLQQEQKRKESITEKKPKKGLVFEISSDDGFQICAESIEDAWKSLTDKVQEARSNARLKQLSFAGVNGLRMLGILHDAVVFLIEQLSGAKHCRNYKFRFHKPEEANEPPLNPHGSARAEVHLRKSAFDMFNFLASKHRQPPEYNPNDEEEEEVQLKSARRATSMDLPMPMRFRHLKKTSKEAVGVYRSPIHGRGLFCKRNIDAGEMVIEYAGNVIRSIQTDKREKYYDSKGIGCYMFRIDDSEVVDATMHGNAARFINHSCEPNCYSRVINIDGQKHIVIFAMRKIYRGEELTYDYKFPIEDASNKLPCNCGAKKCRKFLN

Voltage-gated inwardly rectifying potassium channel KCNH2, sequence (Q12809 whole entry): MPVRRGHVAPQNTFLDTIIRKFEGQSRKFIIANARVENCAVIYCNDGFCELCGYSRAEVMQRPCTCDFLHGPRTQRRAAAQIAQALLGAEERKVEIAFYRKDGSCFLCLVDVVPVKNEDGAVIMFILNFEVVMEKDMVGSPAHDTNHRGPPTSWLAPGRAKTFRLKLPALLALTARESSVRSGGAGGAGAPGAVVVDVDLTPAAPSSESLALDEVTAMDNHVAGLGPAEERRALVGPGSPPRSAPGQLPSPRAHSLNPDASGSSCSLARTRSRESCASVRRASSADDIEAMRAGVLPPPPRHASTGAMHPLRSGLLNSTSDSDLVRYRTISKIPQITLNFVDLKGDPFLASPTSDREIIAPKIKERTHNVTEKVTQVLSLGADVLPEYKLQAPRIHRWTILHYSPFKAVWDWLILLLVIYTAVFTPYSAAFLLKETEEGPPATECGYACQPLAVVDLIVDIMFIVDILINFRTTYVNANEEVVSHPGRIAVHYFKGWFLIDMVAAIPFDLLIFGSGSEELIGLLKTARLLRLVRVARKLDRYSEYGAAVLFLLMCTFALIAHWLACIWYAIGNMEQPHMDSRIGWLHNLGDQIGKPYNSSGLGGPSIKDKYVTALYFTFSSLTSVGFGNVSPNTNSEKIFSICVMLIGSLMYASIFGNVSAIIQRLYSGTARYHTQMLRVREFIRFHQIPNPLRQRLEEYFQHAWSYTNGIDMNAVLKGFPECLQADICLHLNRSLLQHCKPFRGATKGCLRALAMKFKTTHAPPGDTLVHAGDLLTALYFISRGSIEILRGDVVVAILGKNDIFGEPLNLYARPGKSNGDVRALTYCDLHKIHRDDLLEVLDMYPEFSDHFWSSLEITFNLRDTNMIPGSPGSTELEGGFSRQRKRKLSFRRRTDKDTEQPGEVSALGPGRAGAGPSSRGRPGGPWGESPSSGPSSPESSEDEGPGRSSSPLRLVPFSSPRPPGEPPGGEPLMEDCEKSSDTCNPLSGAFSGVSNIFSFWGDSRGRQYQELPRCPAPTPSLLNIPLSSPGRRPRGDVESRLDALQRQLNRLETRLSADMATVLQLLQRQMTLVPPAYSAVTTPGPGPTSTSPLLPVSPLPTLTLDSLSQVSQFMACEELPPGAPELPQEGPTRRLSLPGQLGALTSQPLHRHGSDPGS

Nc1ncnc2c1c(-c1ccc(F)cc1)cn2C1CCN(CC2CN(c3ccc(S(=O)(=O)c4ccncc4)cc3)C2)CC1
IC50 (Menin): 1.22 µM | IC50 (HL-60): > 10 µM | IC50 (MV4-11 [1]): > 10 µM

Nc1ncnc2c1c(-c1ccc(F)cc1)cn2C1CCN(CC2CN(c3ccc(S(=O)(=O)C4CCCCC4)cc3)C2)CC1
IC50 (Menin): 0.25 µM | IC50 (HL-60): > 10 µM | IC50 (MV4-11 [1]): 2 µM

CS(=O)(=O)c1ccc(N2CC(CN3CCC(n4cc(-c5ccc(F)cc5)c5c(N)ncnc54)CC3)C2)cc1
IC50 (Menin): 0.73 µM | IC50 (HL-60): > 10 µM | IC50 (MV4-11 [1]): 2.05 µM

CN1CCN(c2ncnc3c2ccn3C2CCN(CC3CN(c4ccc(C#N)cc4)C3)CC2)CC1
IC50 (Menin): > 10 µM | IC50 (HL-60): > 10 µM | IC50 (MV4-11 [1]): > 10 µM

CC[C@H](Nc1ncnc2[nH]cnc12)c1nc2cccc(F)c2c(=O)n1-c1ccccc1 [IDELALISIB]
IC50 (HL-60): > 10 µM | IC50 (SU-DHL-6): 0.1 µM | IC50 (Pfeiffer): > 10 µM | IC50 (Raji): > 10 µM | IC50 (Ramos): > 10 µM | IC50 (HCT-116): > 10 µM | IC50 (MCF7): > 10 µM | IC50 at 72 h [2]: > 10 µM | IC50 (MV4-11 [1]): > 10 µM

CC(C)N(C)C(=O)c1cc(F)ccc1-n1cc(C2CCN(C(=O)[C@H]3NC4CCC3CC4)CC2)c2ccncc21
IC50 (MV4-11 [3]): 0.073 µM | IC50 [4]: > 100 µM

CCCc1cc2c(N3CCN(C4=NCC(C)(C)S4)CC3)ncnc2s1
IC50 (HL-60): > 10 µM | viability at 1 µM (MV4-11 [5]): 93.8% | Activity (MV4-11 [6]): 3.12% | Activity (MV4-11 [7]): 3.02% | Activity (MV4-11 [8]): 0.09% | viability at 10 µM (MV4-11 [9]): 68% | Activity (MV4-11 [10]): 13.22% | Activity (MV4-11 [11]): 18.52% | Activity (MV4-11 [12]): 0.19% | Activity (MV4-11 [13]): Active | Activity (MV4-11 [14]): Dose-Dependent Effect | Activity (MV4-11 [15]): Tde | Activity (MV4-11 [16]): Dose-Dependent Effect | Activity (MV4-11 [17]): Tde | Activity (MV4-11 [18]): 79% | Activity (MV4-11 [19]): 21% | Activity (MV4-11 [20]): 47.84% | Activity (MV4-11 [21]): 52.13%

CNc1nc(NC2CCN(Cc3ccc4c(cc(C#N)n4CC45CC(NC=O)(C4)C5)c3C)CC2)c2cc(CC(F)(F)F)sc2n1
IC50 [22]: 0.00051 µM

N#Cc1ccc(N2CC(CN3CCC(n4ccc5cncnc54)CC3)C2)cc1
IC50 (Menin): > 10 µM | IC50 (HL-60): > 10 µM | IC50 (MV4-11 [1]): > 10 µM

Nc1ncnc2c1c(-c1ccc(F)cc1)cn2C1CCN(CC2CN(c3ccc(S(=O)(=O)C4CC4)cc3)C2)CC1
IC50 (Menin): 0.47 µM | IC50 (HL-60): 7.5 µM | IC50 (MV4-11 [1]): 1.26 µM
